pIC50: −log10 of the molar value.
Key:
NALM-6 Leukemia = test: MTT assay, antiproliferative activity against NALM-6; format: cell-based; details: Homo sapiens, 24–36 hours drug exposure, 1.0 to 250 μM
Source text: (§1) The following human cancer cell lines were used in the present study: human leukemic cell lines Molt-3 and NALM-6. These cell lines were obtained from American Type Culture Collection (Manassas, Va.) and maintained as continuous cell lines in Dulbecco's modified Eagles's medium supplemented with 10% fetal bovine serum and antibiotics.
(§2) The antiproliferative activity of the COBRA compounds was examined against a panel of 2 different human tumor cell lines using standard MTT (3-[4,5-dimethylthiazol-2-yl]-2,5-diphenyl tetrazolium bromide) assays (Narla, R. K., Liu, X. P., Klis, D. and Uckun, F. M., Clin. Cancer Res., 1998, 4, 2463), (Boehringer Mannheim Corp., Indianapolis, Ind.). Briefly, exponentially growing brain tumor cells were seeded into a 96-well plate at a density of 2.5×10^4 cells/well and incubated for 36 hours at 37° C. prior to drug exposure. On the day of treatment, culture medium was carefully aspirated from the wells and replaced with fresh medium containing the test compounds at concentrations ranging from 1.0 to 250 μM. Triplicate wells were used for each treatment. The cells were incubated with the various compounds for 24–36 hours at 37° C. in a humidified 5% CO2 atmosphere. To each well, 10 μl of MTT (0.5 mg/ml final concentration) was added and the plates were incubated at 37° C. for 4 hours to allow MTT to form formazan crystals by reacting with metabolically active cells. The formazan crystals were solubilized overnight at 37° C. in a solution containing 10% SDS in 0.01 M HCl. The absorbence of each well was measured in a microplate reader (Labsystems) at 540 nm and a reference wavelength of 690 nm. To translate the OD 540 values into the number of live cells in each well, the OD 540 values were compared to those on standard OD 540—versus—cell number curves generated for each cell line. The percent survival was calculated using the formula: survival=Live cell number[test]×100/Live cell number [control].
(§3) IC50 values were calculated by non-linear regression analysis using an Graphpad Prism software version 2.0 (Graphpad Software, Inc., San Diego, Calif.).

MOLT-3 Lymphoma = test: MTT assay, antiproliferative activity against MOLT-3; format: cell-based; details: Homo sapiens, 24–36 hours drug exposure, 1.0 to 250 μM
Source text: as §1, §2, §3

| Structure (SMILES) | pIC50 (NALM-6 Leukemia) | pIC50 (MOLT-3 Lymphoma) |
| --- | --- | --- |
| CCCCCCCCCCCCC(O)c1ccco1 (centres unmarked) [AC-6] | 3.64 | < 3.60 |
| CCCCCCCCCCCCC(O)c1ccc(-c2ccccc2Cl)o1 (centres unmarked) [AC-7] | < 3.60 | < 3.60 |
| CCCCCCCCCCCCC(O)c1ccc(C=O)s1 (centres unmarked) [AC-12] | 5.22 | 4.48 |
| CCCCCCCCCCCCC(O)c1nccs1 (centres unmarked) [AC-13] | < 3.60 | 5.40 |
| CCCCCCCCCCCCC(O)c1[nH]cnc1C (centres unmarked) [AC-15] | 4.60 | 5.05 |

Further compounds by rising pIC50 (NALM-6 Leukemia), results first:

| pIC50 (NALM-6 Leukemia) | pIC50 (MOLT-3 Lymphoma) | Structure (SMILES) |
| --- | --- | --- |
| 3.63 | < 3.60 | CCCCCCCCCCCCC(O)c1cccc(C)n1 (centres unmarked) [AC-16] |
| 3.66 | 3.61 | CCCCCCCCCCCCC(O)c1ccccn1 (centres unmarked) [AC-17] |
| 3.69 | 3.90 | CCCCCCCCCCCCC(O)c1cccs1 (centres unmarked) [AC-10] |
| 5.40 | 5.70 | CCCCCCCCCCCCC(O)c1ccc(Br)s1 (centres unmarked) [AC-11] |
| 5.52 | 4.24 | CCCCCCCCCCCCC(O)c1ncc[nH]1 (centres unmarked) [AC-14] |

From patent US7037937B2, “Cytotoxic compounds” (Parker Hughes Institute, priority 2001, dated 2006)
